Measurements reported in article PMC9892271 (Journal of medicinal chemistry, 2023).
Read-outs that look alike come from different tables or passages of the source. One block for each compound: values may come before it.

What was measured:
[1] = test system: me3-RCC1 and me3-SET in HEK293 cells; assay: cellular N-methylation level study; type: cell-based
NTMT1 = target: T1, NTMT1 (Homo sapiens, UniProt Q9BV86)
T1 sequence (Q9BV86 1-222): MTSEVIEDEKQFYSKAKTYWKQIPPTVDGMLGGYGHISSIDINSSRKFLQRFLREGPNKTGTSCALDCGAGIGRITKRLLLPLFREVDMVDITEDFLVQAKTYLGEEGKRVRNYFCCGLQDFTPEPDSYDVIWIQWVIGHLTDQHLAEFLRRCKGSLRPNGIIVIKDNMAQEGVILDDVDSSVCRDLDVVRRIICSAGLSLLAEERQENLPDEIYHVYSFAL

[2] = test system: me3-RCC1 and me3-SET in HEK293 cells; settings: cited from earlier work
GCS = target: T2, GCS (Homo sapiens, UniProt Q16739); type: cell-based; settings: 30 nM, HCT116 cells
T2 sequence (Q16739 1-394): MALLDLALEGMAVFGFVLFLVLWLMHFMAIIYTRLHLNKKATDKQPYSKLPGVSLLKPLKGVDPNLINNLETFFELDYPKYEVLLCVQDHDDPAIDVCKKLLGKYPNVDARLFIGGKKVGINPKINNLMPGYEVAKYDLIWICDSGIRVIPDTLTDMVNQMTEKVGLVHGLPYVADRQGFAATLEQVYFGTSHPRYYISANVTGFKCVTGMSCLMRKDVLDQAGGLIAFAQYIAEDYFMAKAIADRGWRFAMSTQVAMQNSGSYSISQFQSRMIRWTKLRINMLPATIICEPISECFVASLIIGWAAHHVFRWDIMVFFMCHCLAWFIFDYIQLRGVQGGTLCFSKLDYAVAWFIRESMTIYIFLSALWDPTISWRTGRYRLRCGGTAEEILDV

SAHH = SAHH (Homo sapiens, UniProt P23526); assay: selectivity assay, coupling enzyme SAHH; type: biochemical
NTMT2 = NTMT2 (Homo sapiens, UniProt Q5VVY1); assay: SAM-dependent methyltransferase panel; type: biochemical; settings: single dose of 50 μM
MLL1 complex = MLL1 complex (Homo sapiens, UniProt Q03164); assay: SAM-dependent methyltransferase panel; type: biochemical; settings: single dose of 50 μM
SETD7 = target: T3, SETD7 (Homo sapiens, UniProt Q8WTS6); assay: SAHH-coupled selectivity assay, SETD7; type: biochemical
T3 sequence (Q8WTS6 1-366): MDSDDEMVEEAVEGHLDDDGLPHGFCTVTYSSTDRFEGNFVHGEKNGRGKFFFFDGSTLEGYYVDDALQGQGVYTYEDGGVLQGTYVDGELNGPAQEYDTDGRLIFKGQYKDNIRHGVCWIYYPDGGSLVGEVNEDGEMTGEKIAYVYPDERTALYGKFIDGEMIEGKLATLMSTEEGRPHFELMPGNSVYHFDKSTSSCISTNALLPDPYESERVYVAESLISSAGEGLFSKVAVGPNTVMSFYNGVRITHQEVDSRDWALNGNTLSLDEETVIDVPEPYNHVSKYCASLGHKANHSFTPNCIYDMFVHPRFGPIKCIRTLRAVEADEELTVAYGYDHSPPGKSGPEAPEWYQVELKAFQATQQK

G9a = target: T4, G9a (Homo sapiens, UniProt Q96KQ7); assay: SAHH-coupled selectivity assay, G9a; type: biochemical
T4 sequence (Q96KQ7 1-1210): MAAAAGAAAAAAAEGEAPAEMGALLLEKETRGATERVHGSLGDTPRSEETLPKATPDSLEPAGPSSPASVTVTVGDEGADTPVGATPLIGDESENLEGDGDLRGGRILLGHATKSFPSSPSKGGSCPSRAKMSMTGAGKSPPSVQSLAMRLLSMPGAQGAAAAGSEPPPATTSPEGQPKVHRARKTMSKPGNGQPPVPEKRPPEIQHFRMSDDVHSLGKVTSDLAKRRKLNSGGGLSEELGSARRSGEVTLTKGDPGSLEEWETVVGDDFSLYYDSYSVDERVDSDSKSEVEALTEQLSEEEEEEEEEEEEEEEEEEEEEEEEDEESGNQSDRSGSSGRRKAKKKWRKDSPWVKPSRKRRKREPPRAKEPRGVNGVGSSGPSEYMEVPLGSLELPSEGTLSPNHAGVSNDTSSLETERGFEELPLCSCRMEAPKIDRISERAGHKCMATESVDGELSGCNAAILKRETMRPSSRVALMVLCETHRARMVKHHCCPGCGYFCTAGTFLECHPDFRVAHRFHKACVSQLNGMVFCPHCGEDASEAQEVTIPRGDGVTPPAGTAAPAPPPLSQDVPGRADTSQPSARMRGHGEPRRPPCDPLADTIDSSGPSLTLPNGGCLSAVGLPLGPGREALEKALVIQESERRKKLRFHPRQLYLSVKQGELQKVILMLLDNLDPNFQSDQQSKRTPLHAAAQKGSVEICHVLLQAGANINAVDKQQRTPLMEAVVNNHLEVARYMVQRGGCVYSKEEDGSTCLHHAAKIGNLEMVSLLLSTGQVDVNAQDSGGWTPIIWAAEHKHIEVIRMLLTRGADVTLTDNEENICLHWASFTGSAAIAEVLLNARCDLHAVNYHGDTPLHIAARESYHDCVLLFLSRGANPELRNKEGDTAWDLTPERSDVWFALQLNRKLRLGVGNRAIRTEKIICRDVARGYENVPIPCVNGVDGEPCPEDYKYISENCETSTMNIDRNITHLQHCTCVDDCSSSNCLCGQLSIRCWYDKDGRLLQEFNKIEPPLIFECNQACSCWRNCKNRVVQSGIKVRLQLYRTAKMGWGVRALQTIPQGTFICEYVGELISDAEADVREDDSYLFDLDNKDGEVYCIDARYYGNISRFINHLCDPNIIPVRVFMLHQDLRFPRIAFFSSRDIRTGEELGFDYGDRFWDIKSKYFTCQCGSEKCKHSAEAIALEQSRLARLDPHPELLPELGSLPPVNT

NNMT = target: T5, NNMT (Homo sapiens, UniProt P40261); assay: SAHH-coupled selectivity assay, NNMT; type: biochemical
T5 sequence (P40261 1-264): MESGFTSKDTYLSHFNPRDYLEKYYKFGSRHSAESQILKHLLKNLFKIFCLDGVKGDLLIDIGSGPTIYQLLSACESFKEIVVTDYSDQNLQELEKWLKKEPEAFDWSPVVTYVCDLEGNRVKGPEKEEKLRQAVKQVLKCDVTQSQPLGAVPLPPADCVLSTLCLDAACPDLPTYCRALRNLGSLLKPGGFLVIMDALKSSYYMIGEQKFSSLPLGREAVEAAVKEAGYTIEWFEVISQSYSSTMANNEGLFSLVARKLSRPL

PRMT1 = PRMT1 (Homo sapiens, UniProt Q99873); assay: SAHH-coupled selectivity assay, PRMT1; type: biochemical
TbPRMT7 = TbPRMT7 (Trypanosoma brucei brucei, UniProt Q582G4); assay: SAHH-coupled selectivity assay, PRMT7; type: biochemical
TbPRMT7, sequence (Q582G4 whole entry): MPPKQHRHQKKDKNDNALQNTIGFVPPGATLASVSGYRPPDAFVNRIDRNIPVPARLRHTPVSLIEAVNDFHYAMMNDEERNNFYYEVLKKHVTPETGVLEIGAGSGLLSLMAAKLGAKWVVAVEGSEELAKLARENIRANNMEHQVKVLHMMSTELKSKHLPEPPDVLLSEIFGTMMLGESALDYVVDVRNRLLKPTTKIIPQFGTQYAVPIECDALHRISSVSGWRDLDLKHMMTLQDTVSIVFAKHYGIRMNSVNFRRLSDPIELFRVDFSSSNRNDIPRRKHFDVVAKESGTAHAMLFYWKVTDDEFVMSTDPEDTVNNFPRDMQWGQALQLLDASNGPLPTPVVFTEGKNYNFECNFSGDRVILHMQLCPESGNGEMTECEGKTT

SAHH, sequence (P23526 whole entry, species assumed): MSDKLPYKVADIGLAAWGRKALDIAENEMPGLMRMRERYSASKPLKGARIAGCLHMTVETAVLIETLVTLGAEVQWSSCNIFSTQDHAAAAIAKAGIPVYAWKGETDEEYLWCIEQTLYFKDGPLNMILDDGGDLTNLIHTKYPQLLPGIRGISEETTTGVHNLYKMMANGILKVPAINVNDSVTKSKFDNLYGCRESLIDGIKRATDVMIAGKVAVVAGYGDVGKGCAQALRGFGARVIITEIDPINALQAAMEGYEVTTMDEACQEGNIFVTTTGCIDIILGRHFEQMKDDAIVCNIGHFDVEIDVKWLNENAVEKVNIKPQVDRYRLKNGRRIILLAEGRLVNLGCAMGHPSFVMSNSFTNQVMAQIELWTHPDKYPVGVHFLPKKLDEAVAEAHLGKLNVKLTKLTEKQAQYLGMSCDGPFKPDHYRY
PRMT1, sequence (Q99873 whole entry, species assumed): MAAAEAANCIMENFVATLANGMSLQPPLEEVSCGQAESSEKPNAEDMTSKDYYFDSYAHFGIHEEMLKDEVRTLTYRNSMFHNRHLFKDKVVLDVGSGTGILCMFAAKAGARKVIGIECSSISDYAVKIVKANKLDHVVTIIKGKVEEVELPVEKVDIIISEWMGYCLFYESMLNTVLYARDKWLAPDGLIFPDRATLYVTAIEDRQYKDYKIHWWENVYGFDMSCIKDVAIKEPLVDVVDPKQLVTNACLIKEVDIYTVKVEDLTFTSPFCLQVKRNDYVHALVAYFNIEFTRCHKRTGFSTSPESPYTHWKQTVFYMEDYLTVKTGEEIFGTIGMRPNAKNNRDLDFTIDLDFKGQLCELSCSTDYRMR
MLL1 complex, sequence (Q9C005 whole entry): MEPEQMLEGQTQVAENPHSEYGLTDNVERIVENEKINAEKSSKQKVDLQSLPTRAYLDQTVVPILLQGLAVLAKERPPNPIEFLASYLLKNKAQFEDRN
MLL1 complex, sequence (Q03164 3745-3969): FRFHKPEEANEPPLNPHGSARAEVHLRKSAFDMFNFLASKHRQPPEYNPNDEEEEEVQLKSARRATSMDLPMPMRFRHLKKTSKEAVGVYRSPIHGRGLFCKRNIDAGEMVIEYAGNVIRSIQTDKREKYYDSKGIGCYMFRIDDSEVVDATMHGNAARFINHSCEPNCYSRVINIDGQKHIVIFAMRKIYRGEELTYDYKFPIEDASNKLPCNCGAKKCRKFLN
MLL1 complex, sequence (Q15291 whole entry, further chain): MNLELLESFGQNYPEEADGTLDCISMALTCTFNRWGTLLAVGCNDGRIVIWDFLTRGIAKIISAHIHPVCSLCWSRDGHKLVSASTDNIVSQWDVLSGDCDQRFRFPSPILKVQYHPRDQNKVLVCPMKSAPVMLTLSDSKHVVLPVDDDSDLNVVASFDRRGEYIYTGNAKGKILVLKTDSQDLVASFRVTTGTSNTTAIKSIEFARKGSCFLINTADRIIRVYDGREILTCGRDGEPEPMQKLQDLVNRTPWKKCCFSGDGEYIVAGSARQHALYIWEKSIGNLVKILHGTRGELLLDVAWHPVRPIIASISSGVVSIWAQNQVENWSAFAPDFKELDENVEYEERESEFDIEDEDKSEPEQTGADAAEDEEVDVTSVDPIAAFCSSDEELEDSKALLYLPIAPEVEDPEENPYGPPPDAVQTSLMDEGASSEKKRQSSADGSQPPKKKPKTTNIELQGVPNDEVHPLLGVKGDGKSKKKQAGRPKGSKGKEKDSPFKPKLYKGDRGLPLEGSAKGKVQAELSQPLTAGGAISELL
MLL1 complex, sequence (Q9UBL3 96-628, further chain): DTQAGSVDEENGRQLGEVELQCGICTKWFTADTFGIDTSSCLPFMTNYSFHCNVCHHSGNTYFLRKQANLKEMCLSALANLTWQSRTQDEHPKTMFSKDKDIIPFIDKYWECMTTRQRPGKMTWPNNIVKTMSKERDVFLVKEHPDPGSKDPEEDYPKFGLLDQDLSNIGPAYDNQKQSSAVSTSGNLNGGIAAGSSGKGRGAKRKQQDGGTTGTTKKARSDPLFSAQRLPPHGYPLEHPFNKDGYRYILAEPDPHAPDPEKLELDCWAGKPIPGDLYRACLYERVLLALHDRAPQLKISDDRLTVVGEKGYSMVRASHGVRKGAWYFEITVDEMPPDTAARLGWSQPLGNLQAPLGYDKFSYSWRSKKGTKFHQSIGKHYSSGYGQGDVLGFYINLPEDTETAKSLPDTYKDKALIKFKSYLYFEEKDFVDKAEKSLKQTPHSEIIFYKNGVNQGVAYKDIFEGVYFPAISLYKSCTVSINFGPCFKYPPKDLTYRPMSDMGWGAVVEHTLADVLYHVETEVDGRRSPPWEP
NTMT2, sequence (Q5VVY1 whole entry): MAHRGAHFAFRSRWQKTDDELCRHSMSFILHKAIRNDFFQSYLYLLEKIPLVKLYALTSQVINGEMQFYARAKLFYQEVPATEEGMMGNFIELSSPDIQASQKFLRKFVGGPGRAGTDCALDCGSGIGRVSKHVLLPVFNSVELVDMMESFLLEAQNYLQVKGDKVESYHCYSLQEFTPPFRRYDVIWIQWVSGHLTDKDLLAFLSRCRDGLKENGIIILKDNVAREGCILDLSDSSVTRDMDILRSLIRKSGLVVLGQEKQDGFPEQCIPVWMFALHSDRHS

SMILES: CC(C)(NC(=O)O[C@@H]1CN2CCC1CC2)c1csc(-c2ccc(Cl)c(O)c2)n1 [YD2200]
- effect on me3-RCC1 and me3-SET ([1]; 1 μM): significantly reduces
- IC50 ([1]; read-out: approximate IC50, me3-RCC1 and me3-SET): ~300 nM

SMILES: CC(C)(NC(=O)Oc1cccnc1)c1csc(-c2ccc(F)cc2)n1 [Compound 8, Pyridin-3-yl (2-(2-(4-Fluorophenyl)thiazol-4-yl)propan-2-yl)carbamate]
- NTMT1 inhibition (in words) (NTMT1): null activity

SMILES: CC(C)(NC(=O)O[C@@H]1CN2CCC1CC2)c1csc(-c2cncnc2)n1 [YD2160]
- change in me3-RCC1 or me3-SET ([1]; up to 30 μM): did not induce any change

- fold loss of potency compared to venglustat (NTMT1; NTMT1 IC50): over 40 fold
SMILES: CCCN1CCC[C@H](OC(=O)NC(C)(C)c2csc(-c3ccc(F)cc3)n2)C1 [Compound 6, (S)-1-propylpiperidin-3-yl (2-(2-(4-Fluorophenyl)thiazol-4-yl)propan-2-yl)carbamate]

SMILES: CC(C)(C(=O)N[C@@H]1CN2CCC1CC2)c1csc(-c2ccc(F)cc2)n1 [Compound 10, 2-(2-(4-Fluorophenyl)thiazol-4-yl)-2-methyl-N-(quinuclidin-3-yl)propenamide]
- NTMT1 inhibition (in words) (NTMT1): did not show any inhibition

- fold reduction compared to 6 (NTMT1; NTMT1 IC50): > 5 fold
SMILES: CC(C)(NC(=O)OCCN1CCCCC1)c1csc(-c2ccc(F)cc2)n1 [Compound 7, 2-(Piperidin-1-yl)ethyl (2-(2-(4-Fluorophenyl)thiazol-4-yl)propan-2-yl)carbamate]

SMILES: CC(C)(NC(=O)O[C@@H]1CN2CCC1CC2)c1csc(-c2ccc(F)cc2)n1 [venglustat, (S)-quinuclidin-3-yl (2-(2-(4-Fluorophenyl)thiazol-4-yl)propan-2-yl)carbamate]
- IC50 ([2]; cellular inhibition assay): 500 nM
- IC50 ([2]; read-out: approximate IC50, me3-RCC1 and me3-SET, HEK293 cells): ~300 nM
- inhibition of cellular GCS activity (GCS): significantly inhibits

SMILES: CC(C)(NC(=O)O[C@@H]1CN2CCC1CC2)c1csc(-c2ccc(F)c(O)c2)n1 [GD433]
- inhibition (SAHH; 10 μM): no significant inhibition
- inhibition (SAHH; 30 μM): no significant inhibition
- inhibition (SAHH; 100 μM): did not exhibit inhibition
- inhibition (NTMT2): potently inhibited
- inhibition (MLL1 complex): ~ 25%
- inhibition (SETD7; 10 μM): no significant inhibition
- inhibition (SETD7; 30 μM): no significant inhibition
- inhibition (SETD7; 100 μM): did not exhibit inhibition
- inhibition (G9a; 10 μM): no significant inhibition
- inhibition (G9a; 30 μM): no significant inhibition
- inhibition (G9a; 100 μM): did not exhibit inhibition
- inhibition (NNMT; 10 μM): no significant inhibition
- inhibition (NNMT; 30 μM): no significant inhibition
- inhibition (NNMT; 100 μM): did not exhibit inhibition
- inhibition (PRMT1; 10 μM): no significant inhibition
- inhibition (PRMT1; 30 μM): no significant inhibition
- inhibition (PRMT1; 100 μM): 50%
- inhibition (TbPRMT7; 10 μM): no significant inhibition
- inhibition (TbPRMT7; 30 μM): no significant inhibition
- inhibition (TbPRMT7; 100 μM): did not exhibit inhibition

SMILES: CC(C)(NC(=O)N[C@@H]1CN2CCC1CC2)c1csc(-c2ccc(F)cc2)n1 [Compound 9, 1-(2-(2-(4-Fluorophenyl)thiazol-4-yl)propan-2-yl)-3-(quinuclidin-3-yl)urea]
- fold loss of potency compared to venglustat (NTMT1; NTMT1 IC50): > 100 fold

- fold loss of potency compared to venglustat (NTMT1; NTMT1 IC50): over 40 fold
SMILES: CN1CCC[C@H](OC(=O)NC(C)(C)c2csc(-c3ccc(F)cc3)n2)C1 [Compound 5, (S)-1-methylpiperidin-3-yl (2-(2-(4-Fluorophenyl)thiazol-4-yl)propan-2-yl)carbamate]
